Reference: US11130766B2, “Deuterated thienopiperidine derivatives, manufacturing method, and application thereof” (JIANGSU TASLY DIYI PHARMACEUTICAL CO., LTD., priority 2015, dated 2021)
Read-outs that look alike come from different tables or passages of the source. Marks after values point to notes of the source that are not given here.

What was measured:
[1] = test system: ADP induced platelet aggregation; experiment: ADP induced platelet aggregation, maximum aggregation rate after administration to rats; format: in vivo, Wistar male rats; set-up: unit not given here; conditions: rat, in vivo, 3 mg/kg
Protocol: Addition of small dose of ADP (concentration less than 0.9 μmol/L) into the platelet suspension could lead to rapid platelet aggregation, followed by quick disaggregation; if moderate dose of ADP (about 1.0 μmol/L) was added, then the second irreversible aggregation phase appeared not long after the end of the first aggregation phase and the disaggregation. The maximum aggregation rate of the irreversible aggregation phase was used to evaluate the effect of the test samples on the function of blood coagulation.
Animals: Wistar male rats, weighing 230-250 g, were purchased from Vital River Laboratory Animal Technology Co., Ltd.
Reagent: ADP, Sigma Corporation.
Test samples: 16 test samples were provided by the Tasly Group; referred to China patent application 201310428052.4 for manufacturing method of TSC-1˜4 and TSC-6˜9.
Dose of administration: the test samples were suspended with 0.25% CMC, administered 3 mg/kg weight, volume of administration: 2 mL.
2 Hours after administration, the rats were anesthetized with pentobarbital sodium, and blood was drawn from the abdominal aorta, anticoagulated with sodium citrate with a ratio of 1:9, and centrifuged to obtain the platelet-rich plasma and platelet-poor plasma, with the mixed ratio of the platelet-poor plasma to platelet-rich plasma=3:1.

esterase = conditions: for sample test results (concentration) Mean / sample test results (concentration) Num. 1 / sample test results (concentration) Num. 2 / sample test results (concentration) Num. 3: rat whole blood, 37° C., 30 μg/mL
Protocol: The hydrolysis rates of formula TSD-6 and clopidogrel bisulfate in the rat whole blood were determined by employing the in vitro incubation method.
3 mL of the rat fresh whole blood was taken and placed in a glass test tube. 30 μg/mL of formula TSD-6 and clopidogrel bisulfate (prepared with saline) were added, with 3 parallel tests for each group. The test tubes were shocked at a constant temperature of 37° C., 100 μL of the mixture was taken out at fixed time points of 10 min, 20 min, 30 min, 40 min, 50 min, 60 min, 70 min, 80 min, 90 min, 100 min, 110 min, and 120 min, into which 900 μL of methanol was added to stop the reaction immediately, then 100 μL methanol/water (1:1, v/v) and 100 μL internal standard (diazepam, 100 ng/mL) were added sequentially. The mixture was centrifuged at 13000 rpm at low temperature for 10 min, the supernatant was transferred into another EP tube, and 20 μL of the supernatant was taken for sample injection.

Rat Tail Bleeding Model = test system: Rat Tail Bleeding Model
Protocol: genus, strain SD rat, • Provider: Slac • Weight: 250-350 g • Sex: male • Animal number: 30
Experimental Method: • The animals were allowed adapt to the environment after arrival for 1 week and fasted for 16 hours prior to the experiment. • The tail bleeding time started to be recorded 2 h after oral administration of the test compounds and 4 h after oral administration of clopidogrel. • The rats were anesthetized with pentobarbital sodium (50 mg/kg, ip) 10 min prior to the recording of the tail bleeding time, after the rat was completely anesthetized and reaching the detection time, the tail was cut at 1.3 mm from the rat tail-tip with a scissor and perpendicularly immerged into a saline at 37° C. Timing recording was not started until the blood flow appeared. • The timing recording was stopped when the bleeding time interval was longer than 20 seconds. The maximum observation time for the blood flow was set for 40 minutes. If it was longer than 40 minutes, the timing recording was stopped and the time was recorded as 40 minutes.

[2] = test system: Rat Arteriovenous Thrombus Loop Model
From the text: genus, strain: SD rat, • Provider: Slac • Weight: 250-350 g • Sex: male • Animal number: 30
Apparatus and Materials • Swab, dry tampon, alcohol pad, anerdian tampon. • Surgical scissor, ophthalmic forceps, hemostatic forceps, microsurgical scissor, microsurgical forceps, artery clamps. • 3-0 surgical suture, thick PE tube (I.D.*O.D.=1.14 mm*1.63 mm, 8 cm long), think PE tube (I.D.*O.D.=0.72 mm*1.22 mm, 6 cm long). • Surgical board, binding rope, timer, precise electronic balance, weighing paper. • Syringe, normal saline.
7. Experimental Method • After arrival, the animals were let adapt to the environment for 1 week and fasted for 16 hours prior to the test. • The arteriovenous blood loop circulation was started 2 h after oral administration of the test compounds and 4 h after oral administration of clopidogrel. • The rats were anesthetized with pentobarbital sodium (50 mg/kg, ip) 15 min before the arteriovenous blood loop circulation was started. • The left external jugular vein and the right carotid artery were separated and inserted with thin PE tubes respectively. • Two PE tubes were connected with another thick PE tube with a length of 8 cm to form a circulation passage. There's a 6 cm surgical suture (3-0) in the thick PE tube. • 15 min after the circulation passage was opened, the blood flow was blocked, the filament was taken out and weighed after the blood was sucked out. The thrombus weight was obtained after subtraction of the weight of the filament itself.

[2H]C([2H])([2H])OC(=O)[C@H](c1ccccc1Cl)N1CCc2sc(OP(=O)(O)O)cc2C1 [TSD-6]
Maximum Platelet Aggregation Rate [1]: 17.4 ± 5.13 | hydrolysis rate in the rat whole blood (esterase; compared with clopidogrel, FIG. 2): significantly slower than that of clopidogrel | sample test results (concentration) Mean (esterase; 10 min): 389.7 | sample test results (concentration) Num. 1 (esterase; 10 min): 486 | sample test results (concentration) Num. 2 (esterase; 10 min): 287 | sample test results (concentration) Num. 3 (esterase; 10 min): 396 | sample test results (concentration) Mean (esterase; 20 min): 315.3 | sample test results (concentration) Num. 1 (esterase; 20 min): 306 | sample test results (concentration) Num. 2 (esterase; 20 min): 345 | sample test results (concentration) Num. 3 (esterase; 20 min): 295 | sample test results (concentration) Mean (esterase; 30 min): 244.3 | sample test results (concentration) Num. 1 (esterase; 30 min): 246 | sample test results (concentration) Num. 2 (esterase; 30 min): 223 | sample test results (concentration) Num. 3 (esterase; 30 min): 264 | sample test results (concentration) Mean (esterase; 40 min): 217.7 | sample test results (concentration) Num. 1 (esterase; 40 min): 232 | sample test results (concentration) Num. 2 (esterase; 40 min): 213 | sample test results (concentration) Num. 3 (esterase; 40 min): 208 | sample test results (concentration) Mean (esterase; 50 min): 172.0 | sample test results (concentration) Num. 1 (esterase; 50 min): 196 | sample test results (concentration) Num. 2 (esterase; 50 min): 153 | sample test results (concentration) Num. 3 (esterase; 50 min): 167 | sample test results (concentration) Mean (esterase; 60 min): 132.3 | sample test results (concentration) Num. 1 (esterase; 60 min): 115 | sample test results (concentration) Num. 2 (esterase; 60 min): 134 | sample test results (concentration) Num. 3 (esterase; 60 min): 148 | sample test results (concentration) Mean (esterase; 90 min): 97.50 | sample test results (concentration) Num. 1 (esterase; 90 min): 85.3 | sample test results (concentration) Num. 2 (esterase; 90 min): 112 | sample test results (concentration) Num. 3 (esterase; 90 min): 95.2 | sample test results (concentration) Mean (esterase; 100 min): 72.57 | sample test results (concentration) Num. 1 (esterase; 100 min): 84.7 | sample test results (concentration) Num. 2 (esterase; 100 min): 71.8 | sample test results (concentration) Num. 3 (esterase; 100 min): 61.2 | sample test results (concentration) Mean (esterase; 110 min): 54.63 | sample test results (concentration) Num. 1 (esterase; 110 min): 48.1 | sample test results (concentration) Num. 2 (esterase; 110 min): 59.1 | sample test results (concentration) Num. 3 (esterase; 110 min): 56.7 | sample test results (concentration) Mean (esterase; 120 min): 25.83 | sample test results (concentration) Num. 1 (esterase; 120 min): 24.5 | sample test results (concentration) Num. 2 (esterase; 120 min): 28.4 | sample test results (concentration) Num. 3 (esterase; 120 min): 24.6 | Tail Bleeding Time (s) (Rat Tail Bleeding Model; SD rat, 1.0 mg/kg oral gavage, 2 h after administration): 1331* s | anticoagulant effect (tail bleeding time) (Rat Tail Bleeding Model; rat tail bleeding model, 1 mg/kg oral): much better than that of the non-deuterated compound TSC-6 and analog I-1 | Thrombus (mg) ([2]; SD rat, 1.0 mg/kg oral gavage, 2 h after administration, 15 min circulation): 18.4* mg | weight of the thrombus formed ([2]; rat arteriovenous thrombus loop model, 1 mg/kg oral): much lower than that of the non-deuterated compound TSC-6 and analog I-1
